Laboratory results taken from US9776972B2, “Pyrazole derivatives as arginine methyltransferase inhibitors and uses thereof” (priority 2013, dated 2017).

Each compound was assayed against human PRMT3 (Homo sapiens, UniProt O60678) (assay: PRMT3 Biochemical Assay (3H-SAM Flashplate, peptide substrate)). Conditions: single experiment or average of multiple experiments.
Sequence of human PRMT3 (O60678 with tags, fused parts or gaps): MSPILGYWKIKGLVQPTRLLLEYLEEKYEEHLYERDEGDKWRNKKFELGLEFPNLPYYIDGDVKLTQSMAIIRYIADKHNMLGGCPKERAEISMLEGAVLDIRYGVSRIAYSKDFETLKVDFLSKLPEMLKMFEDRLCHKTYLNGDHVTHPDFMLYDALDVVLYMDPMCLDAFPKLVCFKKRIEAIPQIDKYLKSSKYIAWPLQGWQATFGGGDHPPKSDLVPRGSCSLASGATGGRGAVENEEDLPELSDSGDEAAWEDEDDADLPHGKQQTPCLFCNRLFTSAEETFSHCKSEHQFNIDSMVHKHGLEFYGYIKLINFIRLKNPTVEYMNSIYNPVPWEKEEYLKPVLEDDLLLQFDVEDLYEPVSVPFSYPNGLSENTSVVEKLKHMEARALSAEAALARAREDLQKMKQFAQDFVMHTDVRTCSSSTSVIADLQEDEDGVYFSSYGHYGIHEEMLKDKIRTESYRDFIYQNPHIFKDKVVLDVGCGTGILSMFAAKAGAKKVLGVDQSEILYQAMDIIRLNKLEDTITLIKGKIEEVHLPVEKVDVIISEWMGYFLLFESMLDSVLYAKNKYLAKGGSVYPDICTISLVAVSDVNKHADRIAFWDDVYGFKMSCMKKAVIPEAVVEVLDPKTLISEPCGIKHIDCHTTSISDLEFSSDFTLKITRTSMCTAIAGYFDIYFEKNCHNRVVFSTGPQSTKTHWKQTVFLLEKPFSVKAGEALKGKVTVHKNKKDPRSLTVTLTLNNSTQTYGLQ

SMILES	IC50
CNCCN(C)Cc1c[nH]nc1-c1cccc(N)c1 [Compound 32]	2.76 µM
CN(CCN)Cc1c[nH]nc1-c1ccc(OC(F)F)cc1 [Compound 94]	5.37 µM
Cc1ccc(-c2n[nH]cc2CN(C)CCN)c(Cl)c1 [Compound 90]	6.97 µM
CN(CCN)Cc1cn(C2COC2)nc1-c1ccc(F)cc1 [Compound 77]	6.29 µM
CNCCN(C)Cc1c[nH]nc1-c1cccc(C(C)=O)c1 [Compound 44]	3.44 µM
CNCCN(C)Cc1cnn(C)c1-c1ccc(F)cc1 [Compound 10]	13.4 µM
Cc1ccc(-c2n[nH]cc2CN(C)CCN)c(C)c1 [Compound 88]	8.08 µM
CNCCN(C)Cc1c[nH]nc1-c1ccc(-c2ccccc2)cc1 [Compound 47]	0.53 µM
CN(CCN)Cc1cn(C)nc1-c1ccc(F)cc1 [Compound 3]	25.5 µM
CN(CCN)Cc1c[nH]nc1-c1ccc(F)cc1 [Compound 1]	2.65 µM
CC(C)Oc1ccc(-c2n[nH]cc2CN(C)CCN)cc1 [Compound 67]	4.58 µM
CN(CCN)Cc1c[nH]nc1-c1ccc(F)cc1Cl [Compound 89]	9.56 µM
CNCCN(C)Cc1c[nH]nc1-c1cccc(NC(C)=O)c1 [Compound 42]	2.55 µM
CN(CCN)Cc1c[nH]nc1-c1ccc(Cl)cc1Cl [Compound 86]	5.82 µM
CNCCN(C)Cc1cnn(CC2CCOCC2)c1-c1ccc(F)cc1 [Compound 12]	> 50 µM

The remaining compounds from weak to strong by IC50, led by results:

IC50	SMILES
3.91 µM	CC(C)Oc1ccc(-c2n[nH]cc2CN(C)CCN)cc1Cl [Compound 168]
3.61 µM	CN(CCN)Cc1c[nH]nc1-c1ccc(OC(F)(F)F)cc1 [Compound 93]
3.16 µM	CCN(CCNC)Cc1c[nH]nc1-c1ccc(F)cc1 [Compound 9]
3.14 µM	CN(CCN)Cc1c[nH]nc1-c1ccc(C(F)(F)F)cc1 [Compound 92]
2.39 µM	CN(CCN)Cc1c[nH]nc1-c1ccc(Cl)cc1 [Compound 95]
1.59 µM	CN(CCN)Cc1c[nH]nc1-c1ccc(N2CCNCC2)cc1 [Compound 82]
